Data reported in patent publication US20100009957A1, “NOVEL INHIBITORS OF BETA-LACTAMASE” (priority 2006, published 2010).
Like-named read-outs stand apart in the source and are kept apart here.

Tests used:
AmpC (P. aeruginosa.) = AmpC (P. aeruginosa.) (Pseudomonas aeruginosa, UniProt P24735); experiment: biochemical; details: nitrocefin substrate, pH 7
Protocol: The Class C enzyme activities were measured in the presence of the test inhibitor in spectrophotometric assay against the commercially available substrate, nitrocefin. The enzyme AmpC (P. aeruginosa.), and the substrate, were dissolved in 100 mM KH2PO4 buffer (pH 7). The buffer also contains 0.005% BSA. The test inhibitor was dissolved in DMSO and diluted 1:20 in the assay, resulting in a final concentration range of 50 μM to 0.0002 μM. In a 96-well microplate, the test inhibitor was incubated with the beta-lactamase enzyme for 40 minutes at ambient temperature, the substrate solution was added, and the incubation continued for another 40 minutes. The spectrophotomertric reaction was quenched by the addition of 2.5N acetic acid and the absorbance at 492 nm was measured. The IC50 value was determined from semi logarithmic plots of enzyme inhibition versus inhibitor concentration, with a curve generated using a 4-parameter fit.

[1] = tested on: P. aeruginosa strain CL5701; experiment: Synergy assay (checkerboard) with imipenem; format: cell-based, Pseudomonas aeruginosa; details: for In Vitro 2X Synergy CL5701: concentration for 2X synergy with imipenem against P. aeruginosa strain CL5701; for In Vitro 8X Synergy CL5701: concentration for 8X synergy with imipenem against P. aeruginosa strain CL5701; for In Vitro 16X Synergy CL5701: concentration for 16X synergy with imipenem against P. aeruginosa strain CL5701
Excerpt: The assay determines the concentration of a β-lactamase inhibitor required to reduce the MIC of a β-lactam antibiotic by one-half, one-quarter, one-eighth, one-sixteenth and one-thirty-second against strains of bacteria normally resistant to the antibiotic in question. This is accomplished by titrating the BLI in a serial dilution across a microtiter plate while at the same time titrating the antibiotic in a serial dilution down the microtiter plate and then inoculating the plate with the bacterial strain in question and allowing the bacteria to grow up overnight. Each well in this microplate checkerboard contains a different combination of concentrations of the inhibitor and the antibiotic allowing a full determination of any synergy between the two.
• CL 5701 (Pseudomonas aeruginosa; Pa AmpC)/Imipenem • MB 2646 (Enterobacter cloacae; P99)/Ceftazidime • CL 5513 (Klebsiella pneumoniae; SHV-5)/Ceftazidime • CL 6188 (Acinetobacter baumanii; Oxa40)/Imipenem • CL 6569 (Klebsiella pneumoniae; KPC-2)/Imipenem • CL 5761 (Klebsiella pneumoniae; KPC-3)/Imipenem • CLB 21648 (Acinetobacter baumanii; Ab AmpC)/Imipenem
• 1. […] All wells in row A of MIC 2000 microtiter plates are filled with 100 μL of 2× MHBII+2% DMSO. • 3. […] 100 μL of 2× the final antibiotic concentration wanted is added to wells A2-A12 of the MIC 2000 plates. • 5. 100 μL is serially diluted from row A to row G of each MIC 2000 plate. • 6. 100 μL is removed from each well in row G of each MIC 2000 plate. • 7. 100 μL of 2× the final inhibitor concentration wanted (in MHBII+1% DMSO) is added to all wells in column 1 of the microtiter plates. • 8. 100 μL is serially diluted from column 1 to column 11 of each MIC 2000 plate. • 9. 100 μL is removed from each well in column 11 of each MIC 2000 plate. • 10. Plates are then inoculated with an overnight growth (in TSB) of the strain to be tested using an MIC 2000 inoculator. • 11. Plates are left at 37° C. for about 20 hours and scored for growth by eye.
Synergy may be expressed as a ratio of the minimum inhibitory concentration (MIC) of an antibiotic tested in the absence of a β-lactamase inhibitor to the MIC of the same antibiotic tested in the presence of the β-lactamase inhibitor. […] Alternatively, the synergy effect may be expressed as a factor, again, utilizing a concentration of the BLI to lower the MIC of the antibiotic.
Representative compounds of the present invention display a synergy effect. For example, the compounds of Examples 1 to 20 were determined to have 2× synergy concentrations in a range of from about 100 μM or less.

[2] = P. aeruginosa AmpC IC50, 40 min preincubation
[3] = 40 min preincubation, read-out: P. aeruginosa AmpC IC50

Sequence of AmpC (P. aeruginosa.) (P24735 27-397): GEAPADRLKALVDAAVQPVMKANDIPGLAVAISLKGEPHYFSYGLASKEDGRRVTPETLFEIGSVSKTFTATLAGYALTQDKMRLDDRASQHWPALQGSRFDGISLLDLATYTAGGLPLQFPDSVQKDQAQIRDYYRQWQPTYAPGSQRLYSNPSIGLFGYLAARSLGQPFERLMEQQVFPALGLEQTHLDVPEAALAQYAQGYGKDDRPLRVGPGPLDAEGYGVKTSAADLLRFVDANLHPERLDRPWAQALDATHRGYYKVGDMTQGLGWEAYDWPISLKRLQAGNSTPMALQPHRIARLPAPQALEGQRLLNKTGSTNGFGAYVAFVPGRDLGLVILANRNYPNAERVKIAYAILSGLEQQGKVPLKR

SMILES | IC50 (AmpC (P. aeruginosa.); [2]) [nM] | In Vitro 2X Synergy CL5701 [1] [µM] | In Vitro 8X Synergy CL5701 [1] [µM] | In Vitro 16X Synergy CL5701 [1] [µM] | IC50 (AmpC (P. aeruginosa.); [3]) [nM]
O=C(NC1CCCCNCC1)N1CC[C@@H]2[C@H]1C(=O)N2S(=O)(=O)O (single isomer, unassigned; isomer a) [Example 17] | 1300 | 3.1 | 12.5 | 50 | 
O=C(NC1CCCCNCC1)N1CC[C@@H]2[C@H]1C(=O)N2S(=O)(=O)O (single isomer, unassigned; isomer b) [Example 18] | 25000 | 12.5 | >100 | >100 | 
O=C(NC1CCNCC1)N1CC[C@@H]2[C@H]1C(=O)N2S(=O)(=O)O [Compound A, reference compound] | 6800 | 3.7 | 21 | 67 | 
O=C(N[C@H]1CCCNCC1)N1CC[C@@H]2[C@H]1C(=O)N2S(=O)(=O)O [Example 1] |  | 2.3 |  | 25 | 1200
O=C(N[C@@H]1CCCNCC1)N1CC[C@@H]2[C@H]1C(=O)N2S(=O)(=O)O [Example 2] |  | 3.1 | 25 | 100 | 4000
O=C(NC1CCCCCC1)N1CC[C@@H]2[C@H]1C(=O)N2S(=O)(=O)O [Example 3] | 400 | 100 | >100 | >100 | 
O=C(N[C@@H]1CNCCOC1)N1CC[C@@H]2[C@H]1C(=O)N2S(=O)(=O)O [Example 7, (1S,5R)-2-{[(6R)-1,4-Oxazepan-6-ylamino]carbonyl}-7-oxo-2,6-diazabicyclo[3.2.0]heptane-6-sulfonic acid] |  | 6.3 | 25 | 100 | 600
O=C(N[C@H]1CNCCOC1)N1CC[C@@H]2[C@H]1C(=O)N2S(=O)(=O)O [Example 8, (1S,5R)-2-{[(6S)-1,4-Oxazepan-6-ylamino]carbonyl}-7-oxo-2,6-diazabicyclo[3.2.0]heptane-6-sulfonic acid] |  | 6.3 | 50 | 100 | 1100
